The target of test [1] is T1, Ra3055 TM3 (Hominimerdicola alba, UniProt E9SHH5).
T1 construct: gene CUS_6909; truncation to Ig-like - GH9 (no CBM4_9, no CBM37); pET-46, E. coli
Put plainly: cellobiose release by HPAEC-PAD, Michaelis-Menten fit. Format: biochemical. The following applies: 0.01-30 mM cellotetraose, 10 min; pH and temperature of kinetics not stated. From the text: cellobiose release by HPAEC-PAD, Michaelis-Menten fit on Ra3055 TM3

For the next test, the target named is T2, Ra3055 TM4 (Hominimerdicola alba, UniProt E9SHH5).
T2 construct: gene CUS_6909; GH9 catalytic domain only; pET-46, E. coli
The test is described as above. As to conditions: 0.01-30 mM cellotetraose, 10 min; pH and temperature of kinetics not stated. The class given is biochemical. From the text:
cellobiose release by HPAEC-PAD, Michaelis-Menten fit on Ra3055 TM4

Test [2] deals with T3, Ra3055 TM2 (Hominimerdicola alba, UniProt E9SHH5).
T3 construct: gene CUS_6909; truncation without C-terminal CBM37 (CBM4_9 - Ig-like - GH9); pET-46, E. coli
Described as above. The following applies: 0.01-30 mM cellotetraose, 10 min; pH and temperature of kinetics not stated. The class given is biochemical. The source says: cellobiose release by HPAEC-PAD, Michaelis-Menten fit on Ra3055 TM2

The target in test [3] is T4, Ra3055 TM1 (Hominimerdicola alba, UniProt E9SHH5).
T4 construct: gene CUS_6909; truncation without N-terminal CBM4_9 (Ig-like - GH9 - CBM37); pET-46, E. coli
The description is as above. As to conditions: 0.01-30 mM cellotetraose, 10 min; pH and temperature of kinetics not stated. The class given is biochemical. From the text:
cellobiose release by HPAEC-PAD, Michaelis-Menten fit on Ra3055 TM1

Test [4] addresses T3, Ra3055 TM2. Put plainly: isothermal titration calorimetry. The class given is binding. As to conditions: 50 mM sodium phosphate, 150 mM NaCl, pH 7.5; single-site fit. On the technique in general: ITC needs no label: the signal is the heat of the interaction.
Test [5] concerns the target T4, Ra3055 TM1. As to the kind of experiment: isothermal titration calorimetry. The following applies: 50 mM sodium phosphate, 150 mM NaCl, pH 7.5; single-site fit. Format: binding.
For test [6], the target named is T1, Ra3055 TM3. As to the kind of experiment: isothermal titration calorimetry. The class given is binding. As to conditions: 50 mM sodium phosphate, 150 mM NaCl, pH 7.5; single-site fit.
In the next test the target is T5, Ra3055 (WT) (Hominimerdicola alba, UniProt E9SHH5).
T5 construct: gene CUS_6909; full-length multimodular CBM4_9 - Ig-like - GH9 - CBM37
Put plainly: isothermal titration calorimetry. Format: binding. The following applies: 50 mM sodium phosphate, 150 mM NaCl, pH 7.5; single-site fit.

One may read the Km as the concentration of substrate that gives half-maximal velocity.

T1 sequence (E9SHH5 entry or part of it): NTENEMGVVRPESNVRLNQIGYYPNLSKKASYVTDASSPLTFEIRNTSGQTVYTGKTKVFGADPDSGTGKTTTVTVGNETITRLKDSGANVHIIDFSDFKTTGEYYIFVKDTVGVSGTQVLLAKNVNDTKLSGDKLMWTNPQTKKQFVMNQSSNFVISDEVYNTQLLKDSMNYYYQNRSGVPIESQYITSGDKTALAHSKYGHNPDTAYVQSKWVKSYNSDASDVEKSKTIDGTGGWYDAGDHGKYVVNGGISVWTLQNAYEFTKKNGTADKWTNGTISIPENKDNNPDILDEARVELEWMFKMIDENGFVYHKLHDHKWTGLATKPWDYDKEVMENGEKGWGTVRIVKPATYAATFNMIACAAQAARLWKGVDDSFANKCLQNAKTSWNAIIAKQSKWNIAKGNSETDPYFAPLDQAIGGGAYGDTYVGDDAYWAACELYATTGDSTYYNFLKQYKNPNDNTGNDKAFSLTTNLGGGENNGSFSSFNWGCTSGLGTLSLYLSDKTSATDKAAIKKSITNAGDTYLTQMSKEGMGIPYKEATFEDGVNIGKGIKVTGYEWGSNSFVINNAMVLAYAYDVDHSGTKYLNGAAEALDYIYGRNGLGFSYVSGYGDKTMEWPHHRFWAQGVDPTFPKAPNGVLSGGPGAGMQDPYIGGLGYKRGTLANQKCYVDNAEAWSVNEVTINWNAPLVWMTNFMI
T4 sequence (E9SHH5 entry or part of it): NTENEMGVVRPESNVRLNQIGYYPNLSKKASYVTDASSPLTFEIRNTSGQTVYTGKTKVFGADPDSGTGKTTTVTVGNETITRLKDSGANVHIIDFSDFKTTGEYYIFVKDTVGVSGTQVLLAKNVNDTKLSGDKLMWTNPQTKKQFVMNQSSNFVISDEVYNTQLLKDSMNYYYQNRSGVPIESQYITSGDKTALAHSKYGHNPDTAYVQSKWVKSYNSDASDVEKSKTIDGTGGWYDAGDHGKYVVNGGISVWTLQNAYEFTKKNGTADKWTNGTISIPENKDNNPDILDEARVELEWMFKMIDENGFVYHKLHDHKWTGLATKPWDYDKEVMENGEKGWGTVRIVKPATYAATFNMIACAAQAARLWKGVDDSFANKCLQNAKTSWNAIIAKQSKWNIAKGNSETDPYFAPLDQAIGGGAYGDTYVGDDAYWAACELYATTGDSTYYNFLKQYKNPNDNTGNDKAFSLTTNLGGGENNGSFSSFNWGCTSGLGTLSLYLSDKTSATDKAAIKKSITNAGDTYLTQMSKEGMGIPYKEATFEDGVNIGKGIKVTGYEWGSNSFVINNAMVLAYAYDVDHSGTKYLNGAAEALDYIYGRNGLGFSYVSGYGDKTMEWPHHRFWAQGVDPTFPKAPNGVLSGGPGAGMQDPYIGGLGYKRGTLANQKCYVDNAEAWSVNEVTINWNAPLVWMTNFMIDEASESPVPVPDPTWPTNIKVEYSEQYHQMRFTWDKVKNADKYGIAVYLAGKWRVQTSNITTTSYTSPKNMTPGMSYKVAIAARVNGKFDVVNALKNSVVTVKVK
T3 sequence (E9SHH5 entry or part of it): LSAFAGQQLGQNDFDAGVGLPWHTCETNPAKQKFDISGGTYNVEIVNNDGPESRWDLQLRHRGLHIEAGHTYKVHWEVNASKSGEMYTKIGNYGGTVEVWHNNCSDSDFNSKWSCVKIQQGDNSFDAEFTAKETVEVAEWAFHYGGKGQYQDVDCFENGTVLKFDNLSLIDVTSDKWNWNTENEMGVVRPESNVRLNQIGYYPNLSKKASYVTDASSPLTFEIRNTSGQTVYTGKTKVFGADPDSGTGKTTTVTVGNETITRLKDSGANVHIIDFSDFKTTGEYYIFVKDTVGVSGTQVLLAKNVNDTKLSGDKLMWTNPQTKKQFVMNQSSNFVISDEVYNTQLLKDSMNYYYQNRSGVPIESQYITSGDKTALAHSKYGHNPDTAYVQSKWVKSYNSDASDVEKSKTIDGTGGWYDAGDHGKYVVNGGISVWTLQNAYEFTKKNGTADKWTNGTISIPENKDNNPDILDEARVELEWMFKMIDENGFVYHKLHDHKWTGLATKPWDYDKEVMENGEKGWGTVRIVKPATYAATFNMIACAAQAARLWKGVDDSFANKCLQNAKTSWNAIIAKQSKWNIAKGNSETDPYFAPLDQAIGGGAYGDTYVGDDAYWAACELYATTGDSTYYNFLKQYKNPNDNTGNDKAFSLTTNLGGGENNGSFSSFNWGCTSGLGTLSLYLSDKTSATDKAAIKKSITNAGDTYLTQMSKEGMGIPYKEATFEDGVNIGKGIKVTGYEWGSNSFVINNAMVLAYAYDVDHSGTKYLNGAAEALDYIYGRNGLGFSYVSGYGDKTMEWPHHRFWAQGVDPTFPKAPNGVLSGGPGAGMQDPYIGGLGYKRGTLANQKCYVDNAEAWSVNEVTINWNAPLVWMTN
T2 sequence (E9SHH5 entry or part of it): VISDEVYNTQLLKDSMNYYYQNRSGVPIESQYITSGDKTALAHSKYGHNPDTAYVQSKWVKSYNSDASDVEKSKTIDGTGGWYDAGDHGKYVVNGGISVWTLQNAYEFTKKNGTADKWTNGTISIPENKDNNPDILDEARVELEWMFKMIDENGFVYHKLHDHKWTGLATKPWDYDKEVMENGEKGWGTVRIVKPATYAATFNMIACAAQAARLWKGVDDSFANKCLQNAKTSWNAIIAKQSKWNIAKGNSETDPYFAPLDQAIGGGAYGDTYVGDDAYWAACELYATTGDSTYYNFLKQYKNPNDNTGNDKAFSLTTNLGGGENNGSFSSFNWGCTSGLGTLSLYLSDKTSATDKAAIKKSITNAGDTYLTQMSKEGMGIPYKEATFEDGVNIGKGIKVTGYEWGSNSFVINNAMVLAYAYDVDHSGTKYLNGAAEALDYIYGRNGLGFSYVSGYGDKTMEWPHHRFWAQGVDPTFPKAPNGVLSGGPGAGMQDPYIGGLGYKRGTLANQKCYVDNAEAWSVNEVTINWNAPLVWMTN
T5 sequence (E9SHH5 entry or part of it): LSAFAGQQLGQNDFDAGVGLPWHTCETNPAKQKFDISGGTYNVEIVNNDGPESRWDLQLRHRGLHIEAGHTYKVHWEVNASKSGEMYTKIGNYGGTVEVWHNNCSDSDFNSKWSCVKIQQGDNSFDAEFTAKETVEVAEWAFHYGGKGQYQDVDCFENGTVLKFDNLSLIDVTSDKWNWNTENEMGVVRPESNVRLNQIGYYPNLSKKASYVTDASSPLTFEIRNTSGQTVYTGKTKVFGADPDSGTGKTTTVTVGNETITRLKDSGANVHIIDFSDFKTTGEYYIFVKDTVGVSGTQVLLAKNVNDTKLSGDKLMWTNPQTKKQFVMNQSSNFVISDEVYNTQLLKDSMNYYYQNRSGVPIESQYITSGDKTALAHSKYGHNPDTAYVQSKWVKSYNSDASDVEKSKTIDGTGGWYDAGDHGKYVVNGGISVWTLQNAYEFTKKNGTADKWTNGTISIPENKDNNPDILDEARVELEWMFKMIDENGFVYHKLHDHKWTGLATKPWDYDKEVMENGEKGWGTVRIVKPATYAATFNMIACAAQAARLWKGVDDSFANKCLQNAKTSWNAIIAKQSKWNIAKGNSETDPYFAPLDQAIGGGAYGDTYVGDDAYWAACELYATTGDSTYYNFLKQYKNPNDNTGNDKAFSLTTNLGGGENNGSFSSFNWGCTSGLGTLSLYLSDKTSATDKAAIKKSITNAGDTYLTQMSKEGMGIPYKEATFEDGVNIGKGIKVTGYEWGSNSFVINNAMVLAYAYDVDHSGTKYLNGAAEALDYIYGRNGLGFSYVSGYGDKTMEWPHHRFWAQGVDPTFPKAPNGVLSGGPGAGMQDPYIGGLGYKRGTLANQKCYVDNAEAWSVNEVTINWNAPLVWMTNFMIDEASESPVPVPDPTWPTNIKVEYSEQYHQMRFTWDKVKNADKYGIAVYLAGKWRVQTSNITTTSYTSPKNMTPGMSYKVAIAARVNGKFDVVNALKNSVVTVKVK

On to `OC[C@H]1O[C@@H](O[C@H]2[C@H](O)[C@@H](O)[C@H](O[C@H]3[C@H](O)[C@@H](O)[C@H](O[C@H]4[C@H](O)[C@@H](O)C(O)O[C@@H]4CO)O[C@@H]3CO)O[C@@H]2CO)[C@H](O)[C@@H](O)[C@@H]1O` (some centres unmarked) [G4, cellotetraose], for which the Km at Ra3055 TM3 [1] came to 2.9 ± 0.1 mM; on Ra3055 TM4, 7.9 ± 3.6 mM; on Ra3055 TM2 [2] it was 5.6 ± 0.9 mM; at Ra3055 TM1 [3] it was 4.5 ± 0.3 mM.

As to `OC[C@H]1O[C@@H](O[C@H]2[C@H](O)[C@@H](O)[C@H](O[C@H]3[C@H](O)[C@@H](O)[C@H](O[C@H]4[C@H](O)[C@@H](O)[C@H](O[C@H]5[C@H](O)[C@@H](O)C(O)O[C@@H]5CO)O[C@@H]4CO)O[C@@H]3CO)O[C@@H]2CO)[C@H](O)[C@@H](O)[C@@H]1O` (some centres unmarked) [G5, cellopentaose], the Ka is listed as 3.49E4±4.59E3 at Ra3055 TM2 [4], 6.38E5±1.57E5 on Ra3055 TM1 [5], 5.06E5±4.41E4 on Ra3055 TM3 [6] and 2.94E4±7.38E3 on Ra3055 (WT).
